Where “and” joins values, the source holds several entries; their conditions need not be identical. Equal entries are not always repeated. Where two headings read alike, the source gives them in different places.
Assays:
[1] = Acidity measurement of aqueous solutions with a pH meter; assay type: physicochemical; conditions: 1 to 1000 mM, 25° C., same concentration
Method: Aqueous 5-aminolevulinic acid phosphate solutions and aqueous 5-aminolevulinic acid hydrochloride solutions having a concentration of from 1 to 1000 mM were respectively prepared, and their acidity was measured at 25° C. using a pH meter.

[2] = tested on: Salmonella typhimurium TA 1535; conditions: TA1535
Method: (§1) A test was carried out in accordance with the “Standard of Mutagenicity Tests Using Microorganisms” (Ministry of Labor Notification No. 77, 1988) (partial revision by Ministry of Labor Notification No. 67, 1997) and “Regarding the Tests Concerning Novel Chemical Substances and the like” (dated Nov. 21, 2003: Yaku-Shoku-Hatsu No. 1121002, 2003.11.13 Sei-Kyoku, No. 2, Kan-Ho-Ki-Hatsu No. 031121002). To 0.1 ml of a solution prepared by dissolving 5% (w/v) of 5-aminolevulinic acid phosphate in distilled water (Wako Pure Chemical Industries), 0.5 ml of 0.1 M sodium-phosphate buffer (pH 7.4) (0.5 ml S9 mix in the case of metabolism activation test) was added, and 0.1 ml of each test strain suspension (5 strains of histidine-less Salmonella typhimurium TA 100, TA 98, TA 1535 and TA 1537 and tryptophan-less Escherichia coli WP2 uvrA were used (Japan Bioassay Research Center)) was further added thereto, followed by pre-incubation at 37° C. for 20 minutes while shaking. After completion of the culturing, 2.0 ml of top agar kept at 45° C. in advance was added thereto and layered on a minimum glucose agar plate medium. In this case, 2 plates were arranged for each dosage. However, 3 plates were arranged for a solvent control (negative control). […] In the measurement, an inner area of about 80 mm in diameter of a plate of 86 mm in diameter (84 mm in inner diameter) was measured using an automatic colony analyzer (CA-11: manufactured by System Science), and calculated by carrying out area correction and counting loss correction using a personal computer. However, since reliability of the automatic colony analyzer is reduced when the number of colonies is 1,500 or more, 5 points in the plate were manually measured under the stereoscopic microscope to carry out area correction of the average value. A dosage setting test was carried out on 7 dosages diluted at a common ratio of 4, using a dosage of 5,000 μg/plate as the maximum which is the maximum dosage defined by the guideline.

[3] = tested on: Salmonella typhimurium TA 1537; conditions: TA1537
Method: as §1

[4] = S9 Mix(−), 1250 μg/plate, Phosphate

With `NCC(=O)CCC(=O)O.O=P(O)(O)O` [5-aminolevulinic acid phosphate, 5-aminolevulinic Acid Phosphate] the “acidity of aqueous solution (FIG. 1)” value [1] was “lower than that of the aqueous 5-aminolevulinic acid hydrochloride solution”, the “number of back mutation, mean (in parentheses)” value (from here on “number of back mutation, mean”) ([2]; S9 Mix(+), 313 μg/plate) was “(11) colonies/plate” and the “number of back mutation, single plates” value ([2]; S9 Mix(+), 313 μg/plate, Phosphate) was 11 colonies/plate and 10 colonies/plate. For the same molecule, the “number of back mutation, mean” value ([2]; S9 Mix(+), 625 μg/plate) was “(10) colonies/plate”, the “number of back mutation, mean” value ([2]; S9 Mix(+), 1250 μg/plate) was “(12) colonies/plate” and the “number of back mutation, single plates” value ([2]; S9 Mix(+), 1250 μg/plate, Phosphate) was 10 colonies/plate and 14 colonies/plate. For the same molecule, the “number of back mutation, mean” value ([2]; S9 Mix(+), 2500 μg/plate) was “(8) colonies/plate”, the “number of back mutation, single plates” value ([2]; S9 Mix(+), 2500 μg/plate) was 8 colonies/plate and the “number of back mutation, mean” value ([2]; S9 Mix(+), 5000 μg/plate) was “(7) colonies/plate”. The “number of back mutation, single plates” value ([2]; S9 Mix(+), 5000 μg/plate, Phosphate) was 6 colonies/plate and 8 colonies/plate, the “number of back mutation, mean” value ([2]; S9 Mix(−), 313 μg/plate) was “(10) colonies/plate” and the “number of back mutation, single plates” value ([2]; S9 Mix(−), 313 μg/plate) was 10 colonies/plate. The “number of back mutation, mean” value ([2]; S9 Mix(−), 625 μg/plate) was “(10) colonies/plate”, the “number of back mutation, mean” value ([2]; S9 Mix(−), 1250 μg/plate) was “(10) colonies/plate” and the “number of back mutation, single plates” value [2, 4] was 8 colonies/plate and 11 colonies/plate. For the same molecule, the “number of back mutation, mean” value ([2]; S9 Mix(−), 2500 μg/plate) was “(6) colonies/plate”, the “number of back mutation, single plates” value ([2]; S9 Mix(−), 2500 μg/plate, Phosphate) was 6 colonies/plate and 5 colonies/plate and the “number of back mutation, mean” value ([2]; S9 Mix(−), 5000 μg/plate) was “(7) colonies/plate”. The “number of back mutation, mean” value ([3]; S9 Mix(+), 313 μg/plate) was “(5) colonies/plate”, the “number of back mutation, mean” value ([3]; S9 Mix(+), 625 μg/plate) was “(6) colonies/plate” and the “number of back mutation, mean” value ([3]; S9 Mix(+), 1250 μg/plate) was “(6) colonies/plate”. For the same molecule, the “number of back mutation, single plates” value ([3]; S9 Mix(+), 1250 μg/plate) was 6 colonies/plate, the “number of back mutation, mean” value ([3]; S9 Mix(+), 2500 μg/plate) was “(4) colonies/plate” and the “number of back mutation, single plates” value ([3]; S9 Mix(+), 2500 μg/plate, Phosphate) was 5 colonies/plate and 3 colonies/plate. For the same molecule, the “number of back mutation, mean” value ([3]; S9 Mix(+), 5000 μg/plate) was “(4) colonies/plate”, the “number of back mutation, mean” value ([3]; S9 Mix(−), 313 μg/plate) was “(2) colonies/plate” and the “number of back mutation, mean” value ([3]; S9 Mix(−), 625 μg/plate) was “(3) colonies/plate”. The “number of back mutation, mean” value ([3]; S9 Mix(−), 1250 μg/plate) was “(3) colonies/plate”, the “number of back mutation, single plates” value [3, 4] was 4 colonies/plate and 2 colonies/plate and the “number of back mutation, mean” value ([3]; S9 Mix(−), 2500 μg/plate) was “(2) colonies/plate”. For the same molecule, the “number of back mutation, single plates” value ([3]; S9 Mix(−), 2500 μg/plate) was 2 colonies/plate and the “number of back mutation, mean” value ([3]; S9 Mix(−), 5000 μg/plate) was “(3) colonies/plate”.
